How the values were obtained:
Assay in all cases: growth inhibition relative to DMSO (0) and positive control (1) (fraction); higher = more growth inhibition
HGGX6 [1] = tested on: HGGX6 (H3.3 G34R paediatric high-grade glioma line)
Method: (§1)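 Single-agent arm (compound 1 only) of the paxalisib / mirdametinib dose-matrix plates, 7 days, adherent 384-well. CellTiter-Glo RLU was normalised to fractional activity between DMSO (0) and the positive control (1).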

DIPGX7 [2] = tested on: DIPGX7 (H3.3 K27M diffuse intrinsic pontine glioma line)
Method: as §1

HABS [3] = tested on: HABS (astrocyte control)
Method: as §1

DIPGX29 [4] = tested on: DIPGX29 (H3.3 K27M diffuse intrinsic pontine glioma line)
Method: as §1

DIPGX37 [5] = tested on: DIPGX37 (H3.3 K27M diffuse intrinsic pontine glioma line)
Method: as §1

HGGX42 [6] = tested on: HGGX42 (H3.3 G34R paediatric high-grade glioma line)
Method: as §1

iASTRO [7] = tested on: iASTRO (astrocyte control)
Method: as §1

HGGX6 [8] = tested on: HGGX6; remark: listed apart in the source
Method: (§2)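 Single-agent arm (compound 2 only) of the paxalisib / mirdametinib dose-matrix plates, 7 days, adherent 384-well. CellTiter-Glo RLU was normalised to fractional activity between DMSO (0) and the positive control (1).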

DIPGX7 [9] = tested on: DIPGX7; remark: listed apart in the source
Method: as §2

HABS [10] = tested on: HABS; remark: listed apart in the source
Method: as §2

DIPGX29 [11] = tested on: DIPGX29; remark: listed apart in the source
Method: as §2

DIPGX37 [12] = tested on: DIPGX37; remark: listed apart in the source
Method: as §2

HGGX42 [13] = tested on: HGGX42; remark: listed apart in the source
Method: as §2

iASTRO [14] = tested on: iASTRO; remark: listed apart in the source
Method: as §2

CC1(C)OCCn2c1nc1c(N3CCOCC3)nc(-c3cnc(N)nc3)nc12 [GDC0084]
growth inhibition
Conditions | 0.009766 µM | 0.01953 µM | 0.03906 µM | 0.07812 µM | 0.15625 µM | 0.3125 µM | 0.625 µM | 1.25 µM | 5 µM | 20 µM
DIPGX7 [2] | 0.0627 | 0.0708 | 0.104 | 0.186 | 0.381 | 0.622 | 0.771 | 0.8548 | 0.9176 | 0.977
DIPGX7 [9] | – | – | 0.051 | 0.197 | 0.446 | 0.658 | 0.787 | 0.8579 | 0.9157 | 0.9671
DIPGX29 [4] | 0.073 | 0.102 | 0.178 | 0.216 | 0.266 | 0.357 | 0.491 | 0.595 | 0.8914 | 0.9212
DIPGX29 [11] | – | – | 0.0637 | 0.169 | 0.232 | 0.295 | 0.423 | 0.603 | 0.87 | 0.9389
DIPGX37 [5] | -0.0429 | -0.0173 | 0.0381 | 0.138 | 0.304 | 0.453 | 0.566 | 0.71 | 0.9509 | 0.9986
DIPGX37 [12] | – | – | -0.00546 | 0.192 | 0.323 | 0.499 | 0.598 | 0.756 | 0.9558 | 0.99839
HABS [3] | 0.075 | 0.0784 | 0.0871 | 0.118 | 0.171 | 0.208 | 0.326 | 0.489 | 0.807 | 0.9807
HABS [10] | – | – | -0.0282 | 0.105 | 0.153 | 0.193 | 0.29 | 0.463 | 0.807 | 0.9834
HGGX6 [1] | -0.0247 | -0.0158 | 0.0132 | 0.0493 | 0.125 | 0.232 | 0.359 | 0.507 | 0.758 | 0.869
HGGX6 [8] | – | – | -0.045 | 0.0144 | 0.106 | 0.211 | 0.329 | 0.486 | 0.741 | 0.872
HGGX42 [6] | 0.0532 | 0.0705 | 0.164 | 0.226 | 0.378 | 0.528 | 0.685 | 0.777 | 0.885 | 0.913
HGGX42 [13] | – | – | 0.112 | 0.274 | 0.471 | 0.516 | 0.673 | 0.782 | 0.8721 | 0.898
iASTRO [7] | 0.019 | 0.0114 | 0.00198 | 0.00243 | 0.00554 | -0.0144 | -0.0681 | -0.0251 | 0.577 | 0.706
iASTRO [14] | – | – | 0.0361 | 0.0247 | 0.0269 | -0.0092 | -0.0383 | 0.0569 | 0.631 | 0.726

Reference: the supplement of paper PMC8253809
